Consider 2 molecules from article PMC4113456, “Atypical Signaling and Functional Desensitization Response of MAS Receptor to Peptide Ligands” (PLoS ONE, 2014).

Test [1] addresses T1, MAS (Homo sapiens, UniProt P04201).
T1 construct: expressed in transfected cells
T1 sequence (P04201 1-325): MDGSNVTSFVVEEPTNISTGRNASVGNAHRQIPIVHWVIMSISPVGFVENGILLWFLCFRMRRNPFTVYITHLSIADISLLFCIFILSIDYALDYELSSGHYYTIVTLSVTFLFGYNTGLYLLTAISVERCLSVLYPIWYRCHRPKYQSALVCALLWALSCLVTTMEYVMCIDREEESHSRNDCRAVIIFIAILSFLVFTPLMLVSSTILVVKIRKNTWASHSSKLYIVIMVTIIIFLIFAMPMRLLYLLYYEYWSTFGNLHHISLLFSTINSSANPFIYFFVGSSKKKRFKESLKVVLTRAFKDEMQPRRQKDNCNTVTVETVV
As to the kind of experiment: Intracellular cAMP assay, induced MAS cells. The class given is cell-based. As to conditions: data not shown. Here is the method:
Measurement of intracellular cAMP. The intracellular cAMP levels were measured using CatchPoint™ cAMP Fluorescent assay kit from Molecular devices (Molecular Devices, Sunnyvale, CA). For the cAMP assay, the cells were plated at a density of 1.25 million cells/well in a six-well plate. The cells were maintained in a cell culture incubator and induced the following day with doxycycline. The cells were serum starved for 2h following the induction for 26-28h. At this point the serum free media was replaced with 1ml of 3-Isobutyl-1-methylxanthine (Sigma-Aldrich, St. Louis, MO) at 1mM concentration for 15min at 37°C. Following this, 250µl of ligands were added at 5x concentration to the wells and incubated for another 15min at 37°C. The plates were then immediately transferred to ice and the cells were lysed with 150µl of lysis buffer provided with kit. The cAMP levels in the lysed samples were measured according to the protocol provided by the supplier.
(In general: cAMP levels reflect the balance of adenylyl cyclase and phosphodiesterase activity.)

Test [2] has as its target T2, MAS I191A mutant (Homo sapiens, UniProt P04201, I191A).
T2 construct: expressed in transfected cells
T2 sequence (P04201 1-325 I191A): T1 sequence (P04201 1-325) with I191A
As to the kind of experiment: IP1 assay, I191A MAS mutant stable cell line. The class given is cell-based. An excerpt:
(§1) The WT MAS expression construct was synthesized with an N-terminal myc-tag (Figure 1) by GenScript (Piscataway, NJ). The myc-tagged WT MAS from this vector was initially sub-cloned into pcDNA3.1 and later sub-cloned into tetracycline/doxycycline inducible vector pcDNA 5/TO (Life Technologies, Grand Island, NY). Four different ligand binding MAS mutants (F112A, I191A, M244A and T270A) were created using site-directed mutagenesis of WT myc-tagged MAS in pcDNA3.1 or pcDNA 5/TO vector background (Agilent Technologies, Santa Clara, CA). WT MAS receptor without an epitope tag was constructed by replacing the 5′ portion of the myc-tagged WT MAS in pcDNA 5/TO by untagged MAS sequence from a plasmid construct provided as a gift from Arena Pharmaceuticals, Inc. (San Diego, CA). The sequences of all WT and mutant MAS genes in plasmid constructs were verified by capillary DNA sequencing at the Genomics Core at Lerner Research Institute (Cleveland, OH).
IP1 levels in the cells were measured using the IP-One Tb kit (Cisbio US, Bedford, MA). For the assay, cells were seeded onto a 384-well low volume white cell culture plate at a density of 25,000 cells/well in 20 µl of induction or complete medium. In the IP1 assays the cell density of 25,000 cells/well was consistently maintained to minimize variability between independent experiments. The cells were maintained in a cell culture incubator for 26–28 h. The cells were then serum starved for 2 h by replacing the medium with 7 µl of serum free DMEM/F-12. During this step, 7 µl of serum free DMEM/F-12 was also added to the wells to which IP1 standards would be subsequently added. Following serum starvation, 7 µl of ligands and serially diluted IP1-standards prepared at 2x concentration in stimulation buffer (10 mM Hepes, 1 mM CaCl2, 0.5 mM MgCl2, 4.2 mM KCl, 146 mM NaCl, 5.5 mM glucose, 50 mM LiCl, pH 7.4) were added to the appropriate wells. The cells were then placed in the cell culture incubator for 4 h. Later, 3 µl each of d2-labeled IP1 and anti-IP1 cryptate Tb conjugated antibody diluted in lysis buffer was added sequentially to all the wells and the plate was incubated overnight in the dark at room temperature. Time-resolved ratiometric fluorescence emission measurements at 665 nm and 620 nm were taken after excitation at 343 nm on FlexStation 3 instrument. […]
(§2) For re-stimulation assays, the data is expressed as the percentage of maximum agonist stimulation to allow for ready comparison between individual experiments. For the IP1 assay, a standard curve was generated using the 4-Parameter logistic equation fit of the HTRF readings of IP1 standards using the SoftMax Pro software. […] In the luciferase assay, the luminescence measurements (RLU) are presented as a ratio of firefly to renilla luciferase activity. […]

Test [3] addresses T3, MAS F112A mutant (Homo sapiens, UniProt P04201, F112A).
T3 construct: expressed in transfected cells
T3 sequence (P04201 1-325 F112A): T1 sequence (P04201 1-325) with F112A
As to the kind of experiment: IP1 assay, F112A MAS mutant stable cell line. The class given is cell-based.
Excerpt: as §1
IP1 levels in the cells were measured using the IP-One Tb kit (Cisbio US, Bedford, MA). For the assay, cells were seeded onto a 384-well low volume white cell culture plate at a density of 25,000 cells/well in 20 µl of induction or complete medium. In the IP1 assays the cell density of 25,000 cells/well was consistently maintained to minimize variability between independent experiments. The cells were maintained in a cell culture incubator for 26–28 h. […] Time-resolved ratiometric fluorescence emission measurements at 665 nm and 620 nm were taken after excitation at 343 nm on FlexStation 3 instrument. […]
as §2

Test [4] concerns the target T1, MAS. Set-up: method as in ref [9] (a number printed in a supplementary file, which may have a reference list of its own: not looked up in the article's list). As to conditions: ref [9], read-out: EC50 (cAMP assay); cited from earlier work.
In test [5] the target is T1, MAS. As to the kind of experiment: SRF-RE luciferase reporter assay (Gα12-dependent), induced WT MAS stable cell line. Format: cell-based. As to conditions: induced cells.
Method: The luciferase assay was performed using pGL4 luciferase reporter vectors and Dual-Glo Luciferase Assay System (Promega, Madison, WI). For this assay, the inducible MAS stable cells were initially plated in a 10 cm plate and left overnight in a cell culture incubator. The following day the cells were transfected with 5 µg of pGL4.34 plasmid containing serum response factor response element (SRF-RE)-firefly luciferase reporter gene and 1 µg of pGL4.73 plasmid containing renilla luciferase (as a transfection efficiency control). […] After 8 h of transfection and induction, the cells were seeded onto a 96-well clear bottom black cell culture plate (pre-coated with poly-L-lysine) at a density of 125,000 cells/well in 100 µl of minimal medium (with reduced serum of 0.5%). The plate was maintained in a cell culture incubator for 18–20 h. At this point 50 µl of media in the cells was replaced with 50 µl of serum free media containing ligands at 2x the desired concentration and incubated for an additional 6 h. Finally, the luciferase activity in the cells was measured according the protocol provided by the manufacturer. The luminescence measurements (RLU) in the cells were obtained on FlexStation 3 instrument.
For re-stimulation assays, the data is expressed as the percentage of maximum agonist stimulation to allow for ready comparison between individual experiments. […] In the luciferase assay, the luminescence measurements (RLU) are presented as a ratio of firefly to renilla luciferase activity. For all the assays, the EC50 and IC50 values were estimated by fitting the data to a three parameter dose response using GraphPad Prism software (GraphPad, La Jolla, CA).

Positions count from the first letter of the chain named. Read-outs that look alike come from different tables or passages of the source. Marks after values point to notes of the source that are not given here.

As for `COc1cc([N+](=O)[O-])ccc1S(=O)(=O)N1CC(CN2CCN(c3ccccn3)CC2)C(c2cccc(F)c2)C1` (centres unmarked) [AR-agonist], the “Effect on cAMP levels” value in test [1] is reported as “decreased cAMP levels”. Moreover, the concentration giving a half-maximal response (EC50) in test [2] was 2400 ± 1100 nM; in test [4] it was 720 nM; in test [5] it was 500 ± 100 nM. In addition, the “Fold over WT, EC50 IP1 assay” value in test [2] worked out at 1.8. Besides, in test [3], the “EC50, IP1 assay” value is given as “cbd”.

Take `C=CCCN1CCC2(CC1)CN(C(=O)c1c(F)cccc1F)c1ccc(Cl)cc12` [AR-inverse]: the “Fold over WT, IC50 IP1 assay” value in test [2] is on record as 1.3; in test [3], 3**. Further, the IC50 in test [2] is 900 ± 100 nM; in test [3], 2100 ± 400 nM; in test [5], 400 ± 100 nM.

One may read the EC50 as the concentration giving half of the maximal effect. Broadly, the IC50 is the concentration that gives 50% inhibition. Read a low IC50 as greater potency in that assay.
